Laboratory results: US8263642B2, “Antimicrobial compounds and methods of use thereof” (Vanderbilt University, priority 2008, dated 2012)

Assays:
[1] = test system: S. aureus heme toxicity adaptation; assay: Heme adaptation (resistance to heme-mediated toxicity), Newman; assay type: cell-based, Staphylococcus aureus; conditions: whether compound induces heme adaptation
Procedure: With reference to Table 1, “Luminescence” refers to the raw luminescence value obtained in a luminomter. “Control (82.5 nm)” refers to the luminescence value obtained from heme at 82.5 nM as a positive control in the same plate as the experimental. “% lum” is the percentage of luminescence induced by the compound as compared to the heme control in the same plate. […] All of these assays are described in the application. […] “N/T” indicates the test was not performed.
This secondary counter screen can involve testing the compounds of interest for their ability to increase the resistance of wildtype S. aureus to heme-mediated toxicity. Upon sensing heme, HssRS increases the expression of hrtAB, in turn increasing the resistance of S. aureus to heme mediated toxicity. By extension, additional molecules recognized by HssRS leading to hrtAB activation can result in a similar increase in resistance to heme mediated toxicity. For this assay, bacteria can be grown for 15 hours in the presence of compounds of interest (using concentrations determined in the XylE assay), followed by subculture into TSB containing 10 μM heme. Compounds that increase the resistance of S. aureus to heme-mediated toxicity can be selected for further studies. S. aureus strains unable to adapt to heme mediated toxicity (ΔhssR) can be included as a negative control. As a positive control, wildtype S. aureus can be exposed to subinhibitory concentrations of heme prior to subculture. The inclusion of this secondary counterscreen can, in some aspects, rule out compounds that non-specifically increase the expression of the XylE and Lux-based reporter genes.
S. aureus cultures were grown overnight (O/N ˜15 hrs) at 37° C. with shaking at 180 RPM in tryptic soy broth (TSB). Cultures were diluted 1:75 and inoculated into roundbottom 96-well plates in a final volume of 150 μl. Cultures were grown at 37° C. with aeration and bacterial growth was monitored by the increase in absorbance (O.D.600) over time. For the hemin adaptation assays, the medium was supplemented with different hemin concentrations prior to bacterial inoculation. The results represent the mean±S.D. from triplicate determinations and the asterisks denote statistically significant differences as determined by Student's t test (p<0.05).

response regulator HssR = assay: HssR dependence of XylE inducing activity, Newman; assay type: cell-based, Staphylococcus aureus; conditions: whether XylE inducing activity requires HssR
Procedure: With reference to Table 1, “Luminescence” refers to the raw luminescence value obtained in a luminomter. “Control (82.5 nm)” refers to the luminescence value obtained from heme at 82.5 nM as a positive control in the same plate as the experimental. “% lum” is the percentage of luminescence induced by the compound as compared to the heme control in the same plate. […] All of these assays are described in the application. […] “N/T” indicates the test was not performed. […]
S. aureus strains harboring the appropriate reporter construct were inoculated into 500 μl of TSB containing 10 μg/ml chloramphenicol in 1.5 ml tubes. Cultures were grown O/N at 37° C. with shaking. Bacteria were pelleted by centrifugation and spent medium was aspirated. The pellet was washed once with 500 μl of 20 mM potassium phosphate, pH 7.6, and resuspended in 150 μl of 100 mM potassium phosphate buffer, pH 8.0, 10% (v/v) acetone, 25 μg/ml lysostaphin. After 20 minute incubation at 37° C. and 5 minute incubation on ice, samples were centrifuged at 20,000 g for 30 minutes at 4° C. 1-10 μl of supernatant was added to a 96-well plate and 200 μl of 100 mM potassium phosphate, pH 8.0, 0.2 mM pyrocatechol was added to each well. Formation of 2-hydroxymuconic semialdehyde was tracked by measuring the absorbance at 375 nm every minute for 30 minutes on a Varian MP 50 microplate reader. Protein concentration in samples was determined by BCA (Pierce). One unit of specific activity of XylE in a sample is defined as the formation of 1 nmol of 2-hydroxymuconic semialdehyde per minute per milligram of cellular protein at 30° C. (Chien, Y., Manna, A. C., Projan, S. J., and Cheung, A. L. 1999, “SarA, a global regulator of virulence determinants in Staphylococcus aureus, binds to a conserved motif essential for sar-dependent gene regulation. J. Biol. Chem. 274, 37169-37176).

| SMILES | Heme Adapt [1] | HssR Dep (response regulator HssR) |
| --- | --- | --- |
| Oc1c(-c2cc(-c3ccco3)[nH]n2)ccc2ccccc12 [drawing 25] | + | + |
| CC(NC(=O)C1(c2ccccc2)CCCC1)C1COc2ccccc2O1 (stereo not shown) [drawing 45] | + | + |
| COc1ccc(C(=O)Nc2sc(-c3ccccc3)cc2C(N)=O)cc1 | + | + |
| COc1ccccc1NC1=C/C(=N\S(=O)(=O)c2ccc(Br)cc2)c2ccccc2C1=O [drawing 81] | + | + |
| Oc1c(-c2cc(-c3ccco3)[nH]n2)ccc2ccccc12 [drawing 65] | + | + |
| Cc1ccc(NS(=O)(=O)c2ccc3c(c2)Cc2cc(S(=O)(=O)Nc4ccc(C)cc4)ccc2-3)cc1 [drawing 74] | + | + |
| Cc1ccc(O)c(NC(=O)c2nn3c(c2Br)NC(c2ccco2)CC3C(F)(F)F)c1 (stereo not shown) [drawing 29] | + | + |
| Fc1ccc(CNC(=S)Nc2ccc(Oc3ccccc3)cc2)cc1 | + | + |
| COc1ccc(-c2cc(-c3ccc(OC)cc3O)n[nH]2)cc1 | + | + |
| CC(C)(C)c1ccc(O)c(NC(=S)NC(=O)c2cc3ccccc3o2)c1 | + | + |
| CCCN1C(=O)/C(=C2/C(=O)N(CC(=O)Nc3ccc(Cl)cc3)c3ccccc32)SC1=S [drawing 67] | + | + |
| COc1ccc(Br)cc1C(=O)NC(=S)Nc1cc(C)c(C)cc1O [drawing 63] | + | + |
| CC(NC(=O)C1(c2ccccc2)CCCC1)C1COc2ccccc2O1 (stereo not shown) [drawing 26] | + | + |
| O=C(N/N=C/c1ccc(-c2ccc(Br)cc2)o1)C1COc2ccccc2O1 (stereo not shown) [drawing 48] | + | + |
| O=C(N/N=C/c1ccc(-c2cccc(C(F)(F)F)c2)o1)C1COc2ccccc2O1 (stereo not shown) [drawing 49] | + | + |
| COc1ccc(-c2cc(-c3ccc(C)cc3)[nH]n2)c(O)c1 | + | + |
| Cc1cccc(C(=O)Nc2ccc(-c3nc4ccccc4o3)cc2)c1 [drawing 43] | + | + |
